In the supplement of paper PMC11061612:

Key:
Experiment in all cases: Bliss excess, mean over the matrix (fraction); higher = more synergy
[1] = tested on: OAW-28 (Ovarian Carcinoma)
In short: (§1)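 After 24 hours at 37°C and 5% CO2 in 1536-well plates, cells in DMEM/F12 or RPMI plus 10% FBS received two-drug dose matrices for 72 hours. Viability came from CellTiter-Glo 2.0 luminescence and was scaled as inhibition, anchored at 0 by vehicle wells and at 1 by blank wells. Combination Emax is taken as the second-highest inhibition in the matrix, and Bliss excess as the observed combination effect less EA + EB − EA·EB, with EA and EB the single-agent effects.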

[2] = tested on: BHT-101 (Thyroid Gland Carcinoma)
In short: as §1

NB1 (Neuroblastoma) = tested on: NB1 (Neuroblastoma)
In short: as §1

[3] = tested on: P30-OHK (B-Lymphoblastic Leukemia)
In short: as §1

[4] = tested on: NCI-H596 (Other Solid Carcinomas)
In short: as §1

[5] = tested on: NCI-H1963 (Small Cell Lung Carcinoma)
In short: as §1

SK-N-SH (Neuroblastoma) = tested on: SK-N-SH (Neuroblastoma)
In short: as §1

[6] = tested on: KP-4 (Pancreatic Carcinoma)
In short: as §1

WM35 (Melanoma) = tested on: WM35 (Melanoma)
In short: as §1

AM-38 (Glioblastoma) = tested on: AM-38 (Glioblastoma)
In short: as §1

[7] = tested on: SNU-C2B (Colorectal Carcinoma)
In short: as §1

[8] = tested on: CL-11 (Colorectal Carcinoma)
In short: as §1

[9] = tested on: SK-CO-1 (Colorectal Carcinoma)
In short: as §1

[10] = tested on: NMC-G1 (Low Grade Glioma)
In short: as §1

[11] = tested on: IA-LM (Non-Small Cell Lung Carcinoma)
In short: as §1

[12] = tested on: SCC-4 (Oral Cavity Carcinoma)
In short: as §1

[13] = tested on: Raji (Burkitt's Lymphoma)
In short: as §1

[14] = tested on: NAMALWA (Burkitt's Lymphoma)
In short: as §1

[15] = tested on: SKG-IIIa (Cervical Carcinoma)
In short: as §1

GAK (Melanoma) = tested on: GAK (Melanoma)
In short: as §1

## Cc1c2c(nn1C)CSCc1cc(n(C)n1)CSc1cc(c3ccccc3c1)OCCCc1c(C(=O)O)n(C)c3c-2c(Cl)ccc13 [AZD5991] + Cn1cnc2c(F)c(Nc3ccc(Br)cc3Cl)c(C(=O)NOCCO)cc21 [Selumetinib] (first compound max 1 µM, 7x7, partner max 3 µM)
[1]
  Bliss excess: 0.089
[2]
  Bliss excess: 0.0253
NB1 (Neuroblastoma)
  Bliss excess: -0.0181
[3]
  Bliss excess: 0.0011
[4]
  Bliss excess: -0.0098
[5]
  Bliss excess: 0.0518
SK-N-SH (Neuroblastoma)
  Bliss excess: -0.0515
[6]
  Bliss excess: -0.0165
WM35 (Melanoma)
  Bliss excess: 0.0794
AM-38 (Glioblastoma)
  Bliss excess: 0.0517
[7]
  Bliss excess: 0.0671
[8]
  Bliss excess: -0.0222
[9]
  Bliss excess: -0.0218
[10]
  Bliss excess: -0.0243
[11]
  Bliss excess: -0.0299
[12]
  Bliss excess: 0.0478
[13]
  Bliss excess: 0.0082
[14]
  Bliss excess: -0.0172
[15]
  Bliss excess: -0.0076
GAK (Melanoma)
  Bliss excess: -0.0093

## C=CCn1c(=O)c2cnc(Nc3ccc(N4CCN(C)CC4)cc3)nc2n1-c1cccc(C(C)(C)O)n1 [AZD1775] + C[C@@H]1COCCN1C2=NC(=NC(=C2)C3(CC3)[S@](=N)(=O)C)C4=C5C=CNC5=NC=C4 [AZD6738] (first compound max 1 µM, partner max 10 µM)
[1]
  Bliss excess: 0.0012
[2]
  Bliss excess: 0.0094
NB1 (Neuroblastoma)
  Bliss excess: -0.0161
[3]
  Bliss excess: 0.0928
[4]
  Bliss excess: 0.0323
[5]
  Bliss excess: 0.036
SK-N-SH (Neuroblastoma)
  Bliss excess: -0.0285
[6]
  Bliss excess: 0.031
WM35 (Melanoma)
  Bliss excess: 0.0626
AM-38 (Glioblastoma)
  Bliss excess: 0.0618
[7]
  Bliss excess: -0.0212
[8]
  Bliss excess: -0.0047
[9]
  Bliss excess: -0.0067
[10]
  Bliss excess: -0.0028
[11]
  Bliss excess: 0.0477
[12]
  Bliss excess: -0.0248
[13]
  Bliss excess: 0.109
[14]
  Bliss excess: 0.0397
[15]
  Bliss excess: -0.0378
GAK (Melanoma)
  Bliss excess: 0.0196

## CN(CCO)CC[C@H](CSc1ccccc1)Nc1ccc(S(=O)(=O)NC(=O)c2ccc(N3CCC([C@@H](O)c4ccccc4-c4ccc(Cl)cc4)CC3)cc2)cc1S(=O)(=O)C(F)(F)F [AZD4320] + C1CN(CCC1(C(=O)N[C@@H](CCO)C2=CC=C(C=C2)Cl)N)C3=NC=NC4=C3C=CN4 [Capivasertib] (first compound max 1 µM, 7x7, partner max 3 µM)
[1]
  Bliss excess: -0.0345
[2]
  Bliss excess: 0.0092
NB1 (Neuroblastoma)
  Bliss excess: -0.0031
[3]
  Bliss excess: 0.0169
[4]
  Bliss excess: -0.0509
[5]
  Bliss excess: 0.0172
SK-N-SH (Neuroblastoma)
  Bliss excess: -0.0363
[6]
  Bliss excess: -0.0436
WM35 (Melanoma)
  Bliss excess: -0.017
AM-38 (Glioblastoma)
  Bliss excess: -0.0484
[7]
  Bliss excess: -0.0305
[8]
  Bliss excess: -0.0496
[9]
  Bliss excess: -0.0462
[10]
  Bliss excess: -0.0838
[11]
  Bliss excess: -0.0888
[12]
  Bliss excess: -0.0454
[13]
  Bliss excess: -0.0109
[14]
  Bliss excess: 0.0419
[15]
  Bliss excess: -0.0318
GAK (Melanoma)
  Bliss excess: -0.064

## Cc1c2c(nn1C)CSCc1cc(n(C)n1)CSc1cc(c3ccccc3c1)OCCCc1c(C(=O)O)n(C)c3c-2c(Cl)ccc13 [AZD5991] + CC1(C)CCC(CN2CCN(c3ccc(C(=O)NS(=O)(=O)c4ccc(NCC5CCOCC5)c([N+](=O)[O-])c4)c(Oc4cnc5[nH]ccc5c4)c3)CC2)=C(c2ccc(Cl)cc2)C1 [Venetoclax] (first compound max 1 µM, 7x7, partner max 1 µM)
[1]
  Bliss excess: 0.13
[2]
  Bliss excess: 0.0146
NB1 (Neuroblastoma)
  Bliss excess: -0.0178
[3]
  Bliss excess: 0.285
[4]
  Bliss excess: -0.0102
[5]
  Bliss excess: 0.119
SK-N-SH (Neuroblastoma)
  Bliss excess: 0.151
[6]
  Bliss excess: -0.0563
WM35 (Melanoma)
  Bliss excess: 0.0181
AM-38 (Glioblastoma)
  Bliss excess: -0.0091
[7]
  Bliss excess: -0.0289
[8]
  Bliss excess: -0.0254
[9]
  Bliss excess: -0.0378
[10]
  Bliss excess: -0.03
[11]
  Bliss excess: -0.007
[12]
  Bliss excess: -0.0365
[13]
  Bliss excess: 0.0287
[14]
  Bliss excess: -0.0172
[15]
  Bliss excess: -0.0115
GAK (Melanoma)
  Bliss excess: 0.0208

## CCc1c2c(nc3ccc(O)cc13)-c1cc3c(c(=O)n1C2)COC(=O)[C@]3(O)CC [SN-38] + CN(C)CCCOc1ccc(-c2ccc3ncc4c(c3c2)n(C2CCOCC2)c(=O)n4C)cn1 [AZD0156] (first compound max 0.3 µM, 7x7, partner max 1 µM)
[1]
  Bliss excess: -0.0053
[2]
  Bliss excess: 0.0664
NB1 (Neuroblastoma)
  Bliss excess: -0.0476
[3]
  Bliss excess: 0.0969
[4]
  Bliss excess: 0.027
[5]
  Bliss excess: 0.0847
SK-N-SH (Neuroblastoma)
  Bliss excess: -0.104
[6]
  Bliss excess: 0.0541
WM35 (Melanoma)
  Bliss excess: 0.0082
AM-38 (Glioblastoma)
  Bliss excess: 0.149
[7]
  Bliss excess: 0.0089
[8]
  Bliss excess: 0.117
[9]
  Bliss excess: -0.0032
[10]
  Bliss excess: -0.0202
[11]
  Bliss excess: -0.0369
[12]
  Bliss excess: 0.0021
[13]
  Bliss excess: -0.0003
[14]
  Bliss excess: 0.0402
[15]
  Bliss excess: 0.0352
GAK (Melanoma)
  Bliss excess: 0.0182

## CN(C)CCCOc1ccc(-c2ccc3ncc4c(c3c2)n(C2CCOCC2)c(=O)n4C)cn1 [AZD0156] + C=CCn1c(=O)c2cnc(Nc3ccc(N4CCN(C)CC4)cc3)nc2n1-c1cccc(C(C)(C)O)n1 [AZD1775] (first compound max 1 µM, partner max 1 µM)
[1]
  Bliss excess: -0.0386
[2]
  Bliss excess: -0.0209
NB1 (Neuroblastoma)
  Bliss excess: -0.0109
[3]
  Bliss excess: 0.0179
[4]
  Bliss excess: 0.0029
[5]
  Bliss excess: -0.0147
SK-N-SH (Neuroblastoma)
  Bliss excess: -0.0533
[6]
  Bliss excess: -0.0898
WM35 (Melanoma)
  Bliss excess: -0.0166
AM-38 (Glioblastoma)
  Bliss excess: 0.0248
[7]
  Bliss excess: -0.0328
[8]
  Bliss excess: -0.0547
[9]
  Bliss excess: -0.0523
[10]
  Bliss excess: -0.0467
[11]
  Bliss excess: -0.0068
[12]
  Bliss excess: -0.0393
[13]
  Bliss excess: -0.0278
[14]
  Bliss excess: 0.0156
[15]
  Bliss excess: -0.0565
GAK (Melanoma)
  Bliss excess: -0.0058

## Cc1cc2ncnn2cc1Nc1ncc2c(n1)n(C1CCOCC1)c(=O)n2C [AZD7648] + CN(C)CCCOc1ccc(-c2ccc3ncc4c(c3c2)n(C2CCOCC2)c(=O)n4C)cn1 [AZD0156] (first compound max 10 µM, 7x7, partner max 1 µM)
[1]
  Bliss excess: -0.0115
[2]
  Bliss excess: 0.0659
NB1 (Neuroblastoma)
  Bliss excess: 0.0084
[3]
  Bliss excess: 0.0194
[4]
  Bliss excess: -0.002
[5]
  Bliss excess: 0.0494
SK-N-SH (Neuroblastoma)
  Bliss excess: -0.0046
[6]
  Bliss excess: 0.0228
WM35 (Melanoma)
  Bliss excess: -0.0123
AM-38 (Glioblastoma)
  Bliss excess: -0.0139
[7]
  Bliss excess: -0.0251
[8]
  Bliss excess: 0.0399
[9]
  Bliss excess: -0.0486
[10]
  Bliss excess: -0.0497
[11]
  Bliss excess: -0.0133
[12]
  Bliss excess: -0.0164
[13]
  Bliss excess: 0.0416
[14]
  Bliss excess: -0.0224
[15]
  Bliss excess: -0.0195
GAK (Melanoma)
  Bliss excess: 0.0232

## COc1cccc(OCCCN)c1-c1cc(Nc2cnc(C#N)cn2)n[nH]1 [Prexasertib] + Cc1cc2ncnn2cc1Nc1ncc2c(n1)n(C1CCOCC1)c(=O)n2C [AZD7648] (first compound max 1 µM, 7x7, partner max 10 µM)
[1]
  Bliss excess: -0.025
[2]
  Bliss excess: 0.0399
NB1 (Neuroblastoma)
  Bliss excess: 0.0251
[3]
  Bliss excess: -0.0301
[4]
  Bliss excess: -0.026
[5]
  Bliss excess: -0.0075
SK-N-SH (Neuroblastoma)
  Bliss excess: -0.0138
[6]
  Bliss excess: 0.0031
WM35 (Melanoma)
  Bliss excess: 0.0429
AM-38 (Glioblastoma)
  Bliss excess: 0.0296
[7]
  Bliss excess: -0.0356
[8]
  Bliss excess: -0.0065
[9]
  Bliss excess: -0.009
[10]
  Bliss excess: -0.0374
[11]
  Bliss excess: 0.0324
[12]
  Bliss excess: -0.0267
[13]
  Bliss excess: -0.0135
[14]
  Bliss excess: 0.0087
[15]
  Bliss excess: 0.0223
GAK (Melanoma)
  Bliss excess: -0.0028

## CCN(CCO)CCCOc1ccc2c(Nc3cc(CC(=O)Nc4cccc(F)c4)[nH]n3)ncnc2c1 [AZD2811] + C[C@@H]1COCCN1C2=NC(=NC(=C2)C3(CC3)[S@](=N)(=O)C)C4=C5C=CNC5=NC=C4 [AZD6738] (first compound max 1 µM, 7x7, partner max 10 µM)
[1]
  Bliss excess: -0.0207
[2]
  Bliss excess: -0.0298
NB1 (Neuroblastoma)
  Bliss excess: -0.0802
[3]
  Bliss excess: -0.0736
[4]
  Bliss excess: -0.0056
[5]
  Bliss excess: -0.0777
SK-N-SH (Neuroblastoma)
  Bliss excess: -0.0358
[6]
  Bliss excess: -0.0273
WM35 (Melanoma)
  Bliss excess: -0.0306
AM-38 (Glioblastoma)
  Bliss excess: -0.0202
[7]
  Bliss excess: -0.0581
[8]
  Bliss excess: -0.0488
[9]
  Bliss excess: -0.0309
[10]
  Bliss excess: -0.117
[11]
  Bliss excess: -0.0264
[12]
  Bliss excess: -0.0707
[13]
  Bliss excess: -0.0562
[14]
  Bliss excess: 0.0394
[15]
  Bliss excess: -0.0409
GAK (Melanoma)
  Bliss excess: -0.056

## CC1(C)CCC(CN2CCN(c3ccc(C(=O)NS(=O)(=O)c4ccc(NCC5CCOCC5)c([N+](=O)[O-])c4)c(Oc4cnc5[nH]ccc5c4)c3)CC2)=C(c2ccc(Cl)cc2)C1 [Venetoclax] + C1CN(CCC1(C(=O)N[C@@H](CCO)C2=CC=C(C=C2)Cl)N)C3=NC=NC4=C3C=CN4 [Capivasertib] (first compound max 1 µM, 7x7, partner max 3 µM)
[1]
  Bliss excess: -0.0123
[2]
  Bliss excess: -0.0312
NB1 (Neuroblastoma)
  Bliss excess: -0.0596
[3]
  Bliss excess: 0.058
[4]
  Bliss excess: -0.0211
[5]
  Bliss excess: -0.0031
SK-N-SH (Neuroblastoma)
  Bliss excess: -0.0998
[6]
  Bliss excess: -0.0623
WM35 (Melanoma)
  Bliss excess: -0.0456
AM-38 (Glioblastoma)
  Bliss excess: -0.0742
[7]
  Bliss excess: -0.0833
[8]
  Bliss excess: -0.0205
[9]
  Bliss excess: -0.0247
[10]
  Bliss excess: -0.0683
[11]
  Bliss excess: -0.057
[12]
  Bliss excess: -0.0792
[13]
  Bliss excess: -0.0008
[14]
  Bliss excess: -0.0126
[15]
  Bliss excess: -0.0207
GAK (Melanoma)
  Bliss excess: -0.0305
